Measurements taken from publication PMC12298827, “Subchronic Toxicities of Four Per- and Polyfluoroalkyl Substances (PFASs) by Oral Exposure in Sprague–Dawley Rats” (Toxics, 2025).

Test system: male and female Sprague–Dawley rats
Test: 90-day subchronic oral gavage toxicity study
Type: in vivo, rat
Conditions: female
Method: Subchronic (90-day) studies were performed in accordance with current U.S. EPA’s Toxic Substances Control Act Good Laboratory Practice (GLP) Standards, with the following two general exceptions to the GLP guidelines: Analysis of the dose formulations was conducted according to RTI-approved Standard Operating Procedures, and corn oil (the vehicle) was not characterized (certificate of analysis from the vendor is available in the appendices to the final reports). Male and female Sprague–Dawley rats (five dose levels plus a control, n = 10/sex/dose group, corn oil vehicle dose volume of 3 mL/kg; oral gavage) were used in these studies, and the rats were euthanized on SD 91. The dose levels for PFHI were 0, 12.5, 25, 50, 100, and 200 mg/kg-day. The dose levels for MHFPK were 0, 18.8, 37.5, 75, 150, and 300 mg/kg-day. The dose levels for PFNAC were 0, 0.1, 0.3, 1.0, 3.0, and 10 mg/kg-day for male rats and 0, 0.3, 1.0, 3.0, 10, and 30 mg/kg-day for female rats. For CTFPA, the dose levels were 0, 1.9, 3.8. 7.5, 15, and 30 mg/kg-day for male rats and 0, 6.3, 12.5, 25, 50, and 100 mg/kg-day for female rats. For each PFAS, three batches of dosing solution were prepared. The time between the batch preparation of the dosing solutions ranged between 29 and 39 days. Blood samples were collected from all the rats at termination for serum chemistry, hematology, coagulation, and the analysis of the parent PFAS chemical in the plasma. In vivo data collection and further detail on the endpoints examined postmortem are described below.
The rats were observed twice daily for morbidity and mortality throughout the study period. At least once prior to randomization to test groups and weekly thereafter, the rats were physically examined, and bodyweights were obtained. Feed consumption was quantified weekly starting on SD 1.
Neurotoxicity was evaluated using the functional observational battery (FOB) and measuring locomotor activity (LMA) 2–4 h post dosing on SDs 78–80 and 80–84, respectively. For both the 14- and 90-day studies, an ophthalmologic examination was conducted prior to randomization and near the end of the study, using indirect ophthalmoscopy and slit–lamp biomicroscopy (as needed) after the administration of a mydriatic solution.
Hematology, biochemistry, and coagulation endpoints were measured at the termination of the study. A Siemens Advia 2120i hematology analyzer (Siemens Healthineers, Erlangen, Germany) was used to measure (or calculate) the parameters related to the complete blood count, leukocyte differential count, and reticulocyte count. The hematology parameters are listed and described in Table 2. The prothrombin time […] and activated partial thromboplastin time (APTT) were measured using an Instrumentation Laboratory (Bedford, MA, USA) ACL Elite Pro coagulation analyzer (laser–nephelometric centrifugal method).
At necropsy, the rats were visually examined for external abnormalities and organ weights (absolute and relative to the BW and brain weight), which were recorded (paired organs weighed together). The tissues were preserved in 10% neutral buffered formalin (NBF), except for the ocular tissues, testes, and epididymides, which were preserved in modified Davidson’s fixative and later transferred to 10% NBF. Bone marrow smears were prepared from the femurs, and the slides were air-dried, fixed in methanol, stained, and stored at room temperature for possible future evaluation. The preserved tissues were embedded in paraffin, sectioned, stained with hematoxylin and eosin, and examined by a board-certified veterinary pathologist.
Statistical analysis was performed using Provantis™ Version 10 or greater (Instem LSS, Limited; Stone, Staffordshire, UK). Differences among the treatment groups compared to the control were evaluated using one-way analysis of variance (ANOVA) if the underlying assumptions of a normal distribution (Shapiro–Wilk test) and the homogeneity of the variance (Levene’s test) were satisfied. […]

SMILES: C=CC(=O)OCC(F)(F)C(F)(F)C(F)(F)C(F)(F)C(F)(F)C(F)(F)C(F)(F)C(F)F [PFNAC, 1H,1H,9H-Perfluorononyl acrylate]
- Kidney Weight (1.0 mg/kg-day): 1.73 g
- Kidney/Body Weight (1.0 mg/kg-day): 0.59%
- Kidney/Brain Weight (1.0 mg/kg-day): 90.7%
- Liver Weight (1.0 mg/kg-day): 7.89 g
- Liver/Body Weight (1.0 mg/kg-day): 2.67%
- Liver/Brain Weight (1.0 mg/kg-day): 412%
- MPV (1.0 mg/kg-day): 7.59 ± 0.74 fL
- PT (1.0 mg/kg-day): 14.03 s
- RBC (1.0 mg/kg-day): 7.303±0.562 M/µL
- Total BW change (1.0 mg/kg-day): 94.80 g
- Total Food Consumed (1.0 mg/kg-day): 1444 g
- % BW Gain (3.0 mg/kg-day): 47.09%
- % Diff, % BW Gain (3.0 mg/kg-day): -3.49%
- % Diff, Total BW change (3.0 mg/kg-day): -2.02%
- % Diff, Total Food Consumed (3.0 mg/kg-day): 7.48%
- A/G (3.0 mg/kg-day): 1.15±0.06 ratio
- ABEOS (3.0 mg/kg-day): 0.083±0.028 K/µL
- ABNEUT (3.0 mg/kg-day): 1.419±0.734 K/µL
- ABRETi (3.0 mg/kg-day): 176.48±43.69 10^9/L
- ALB (3.0 mg/kg-day): 4.56 ± 0.18 g/dL
- ALPi (3.0 mg/kg-day): 55.4±20.6 U/L
- APTT (3.0 mg/kg-day): 20.34 s
- BUN (3.0 mg/kg-day): 16.4 ± 1.3 mg/dL
- CHOL (3.0 mg/kg-day): 92.3 ± 16.3 mg/dL
- GLOB (3.0 mg/kg-day): 3.97 ± 0.13 g/dL
- GLUC (3.0 mg/kg-day): 104.4 ± 8.0 mg/dL
- HCT (3.0 mg/kg-day): 41.82±2.32%
- HGB (3.0 mg/kg-day): 13.37 ± 0.68 g/dL
- Kidney Weight (3.0 mg/kg-day): 1.83 g
- Kidney/Body Weight (3.0 mg/kg-day): 0.61%
- Kidney/Brain Weight (3.0 mg/kg-day): 91.1%
- Liver Weight (3.0 mg/kg-day): 7.96 g
- Liver/Body Weight (3.0 mg/kg-day): 2.67%
- Liver/Brain Weight (3.0 mg/kg-day): 396%
- MPV (3.0 mg/kg-day): 7.77 ± 0.42 fL
- PT (3.0 mg/kg-day): 14.15 s
- RBC (3.0 mg/kg-day): 7.262±0.327 M/µL
- Total BW change (3.0 mg/kg-day): 99.10 g
- Total Food Consumed (3.0 mg/kg-day): 1512 g
- % BW Gain (10 mg/kg-day): 46.00%
- % Diff, % BW Gain (10 mg/kg-day): -5.72%
- % Diff, Total BW change (10 mg/kg-day): -5.60%
- % Diff, Total Food Consumed (10 mg/kg-day): 5.11%
- A/G (10 mg/kg-day): 1.17±0.07 ratio
- ABEOS (10 mg/kg-day): 0.081±0.022 K/µL
- ABNEUT (10 mg/kg-day): 1.562±1.084 K/µL
- ABRETi (10 mg/kg-day): 160.88±34.97 10^9/L
- ALB (10 mg/kg-day): 4.66 ± 0.39 g/dL
- ALPi (10 mg/kg-day): 50.5±7.3 U/L
- APTT (10 mg/kg-day): 22.50 s
- BUN (10 mg/kg-day): 19.1 ± 3.5 mg/dL
- CHOL (10 mg/kg-day): 77.7 ± 14.0 mg/dL
- GLOB (10 mg/kg-day): 3.98 ± 0.29 g/dL
- GLUC (10 mg/kg-day): 108.8 ± 12.0 mg/dL
- HCT (10 mg/kg-day): 41.08±2.03%
- HGB (10 mg/kg-day): 13.12 ± 0.63 g/dL
- Kidney Weight (10 mg/kg-day): 1.81 g
- Kidney/Body Weight (10 mg/kg-day): 0.62%
- Kidney/Brain Weight (10 mg/kg-day): 89.98%
- Liver Weight (10 mg/kg-day): 8.42 g
- Liver/Body Weight (10 mg/kg-day): 2.88%
- Liver/Brain Weight (10 mg/kg-day): 419%
- MPV (10 mg/kg-day): 7.80 ± 0.60 fL
- PT (10 mg/kg-day): 14.11 s
- RBC (10 mg/kg-day): 7.241±0.358 M/µL
- Total BW change (10 mg/kg-day): 95.48 g
- Total Food Consumed (10 mg/kg-day): 1479 g
- % BW Gain (30 mg/kg-day): 52.06%
- % Diff, % BW Gain (30 mg/kg-day): 6.69%
- % Diff, Total BW change (30 mg/kg-day): 5.59%
- % Diff, Total Food Consumed (30 mg/kg-day): 8.40%
- ABEOS (30 mg/kg-day): 0.082±0.026 K/µL
- ABNEUT (30 mg/kg-day): 1.118±0.358 K/µL
- ABRETi (30 mg/kg-day): 164.87±31.05 10^9/L
- APTT (30 mg/kg-day): 22.09 s
- HCT (30 mg/kg-day): 40.37±2.37%
- HGB (30 mg/kg-day): 13.04 ± 0.72 g/dL
- Kidney Weight (30 mg/kg-day): 1.99 g
- Kidney/Body Weight (30 mg/kg-day): 0.65%
- Kidney/Brain Weight (30 mg/kg-day): 101%
- Liver Weight (30 mg/kg-day): 9.83 g
